From publication PMC6039436, “Radiobrominated benzimidazole-quinoline derivatives as Platelet-derived growth factor receptor beta (PDGFRβ) imaging probes” (Scientific Reports, 2018)
Marks after values point to notes of the source that are not given here. Values belong to the compound of their own block, whether it stands above or below them.

Experiments:
PDGFRβ (BxPC3-luc cells) = target: T1, PDGFRβ (BxPC3-luc cells) (Homo sapiens, UniProt P09619); assay: Competitive binding assay of [^125I]4 with BxPC3-luc cells; conditions: displacement of [^125I]4, BxPC3-luc cells, 37 °C, 4 h
T1 construct: host or cells: BxPC3-luc cells
Protocol: We investigated the competitive binding of [^125I]4 to BxPC3-luc cells with PDGFRβ ligand, 1, 2, and 3.
BxPC3-luc cells in medium containing 10% FBS and antibiotics were seeded on 24-well plates (50,000 cells/wells) and incubated for 24 h in a 5% CO2 incubator at 37 °C. Nine concentrations of displacing nonradiolabeled ligands (1, 2 and 3) (ranging from 1 pM to 1 mM) and [^125I]4 in medium without FBS were incubated at 37 °C for 4 h. After washing the cells twice using 250 µL of ice-cold PBS, the unbound radioligand was removed. The cells were dissolved using 250 µL of 1 M NaOH and wells were washed with 250 µL of 1 M NaOH. The bound radioactivity was determined using a gamma counter.
All data were statisticaly analyzed using GraphPad 5.0 software (La Jolla, CA, USA) and expressed as mean ± standard deviation (SD). Significance for in vitro blocking experiments was determined by a one-way analysis of variance (ANOVA) followed by Dunnett’s post hoc test compared to the control group. Significance in cell viability assays was determined by ANOVA followed by Tukey’s post hoc test. IC50 values for the binding assay were calculated by nonlinear regression. Significant differences in biodistribution experiments between [^77Br]2 and [^77Br]3 groups were determined using unpaired Student’s t-test. Significance for in vivo blocking studies between control and blocking groups were determined by unpaired Student’s t-test. Results were considered statistically significant at p < 0.05.

[1] = test system: PDGFRβ overexpressed TR-PCT1 cells; assay: Cell viability assay (WST-8 / Cell Counting Kit-8); format: cell-based, rat; conditions: 1–1000 nM, 72 h, 20 ng/mL PDGF-BB, compared with 1
Protocol: The binding affinity of 2 and 3 to the ATP-binding site in PDGFRβ was evaluated using PDGFRβ overexpressed TR-PCT1 cells. Cells were treated with 1–1000 nM of synthesized ligands, 1, 2, or 3.
Figure 4 Cell viability after exposure 1, 2, and 3 by WST-8 assay. Data were presented as mean ± SD for three samples. Significance was determined using a one-way ANOVA followed by Tukey’s post hoc test (^*p < 0.01, ^**p < 0.001).
The cell viability assay of brominated compounds, 2 and 3, was evaluated as described previously[24],[27]. Namely, TR-PCT1 cells were seeded on 96-well plates (5 × 10^3 cells/well) and cultured at 33 °C in DMEM medium with 20 ng/mL PDGF-BB and 2% FBS in a 5% CO2 incubator. Cells were treated with each compound for 72 h and cell viability was determined by the Cell Counting Kit-8.

[2] = set-up: method as in PMID 28838832; conditions: radioiodinated compounds; cited from earlier work
[3] = Biodistribution in ddY mice; format: in vivo; conditions: i.v. co-injection
Protocol: In this study, to minimize both the number of mice consumed in the experiment and the potential for experimental errors, we co-injected radiobrominated and radioiodinated compounds into mice[30],[31]. High radioactivity in the liver, small intestine, and large intestine was observed.
(§1) Mice were intravenously injected via the tail with 100 µL of saline solution of [^77Br]2 and [^125I]4 or [^77Br]3 and [^125I]5 (74 kBq, respectively), containing 10% ethanol and 1% tween-80. The ddY mice were sacrificed at 10 min, 1, 4, and 24 h postinjection. Meanwhile, tumor-bearing mice were sacrificed at 1 h postinjection.
(§2) Tissues in mice were resected and weighed. The radioactivity of the tissues was counted by a gamma counter and counts were corrected for background radiation. The data were expressed as percent injection dose per gram tissue (%ID/g).

BxPC3-luc tumor = assay: Biodistribution in BxPC3-luc tumor-bearing mice; format: in vivo, BALB/c nu/nu mice
Protocol: We investigated the biodistribution of the radiotracers in BxPC3-luc tumor-bearing mice by co-injecting [^77Br]2 with [^125I]4 (Table 3), and [^77Br]3 with [^125I]5 (Table 4).
Animal experiments were conducted in strict accordance with the Guidelines for the Care and Use of Laboratory Animals of Kanazawa University. The animal experimental protocols used were approved by the Committee on Animal Experimentation of Kanazawa University (Permit Number: AP-163766). The animals were housed with free access to food and water at approximately 23 °C with a 12 h light/dark schedule. ddY mice (six-week-old, male, 27–30 g) and BALB/c nu/nu mice (four-week-old, female, 12–17 g) were purchased from Japan SLC Inc. (Hamamatsu, Japan). For preparing the tumor-bearing mice, BxPC3-luc cells (5 × 10^6 cells) were subcutaneously injected into the left shoulder of BALB/c nu/nu mice. The tumor reached palpable size after two weeks of the inoculation.
as §1, §2

[4] = test system: BxPC3-luc cells (PDGFRβ-positive); assay: Cellular uptake study (double tracer method); format: cell-based; conditions: BxPC3-luc (PDGFRβ-positive) vs MCF7 (PDGFRβ-negative), 0.5–4 h
Protocol: Figure 5 Cellular uptake study. Time-dependent accumulation of (a) [^77Br]2 and [^125I]4 (b) [^77Br]3 and [^125I]5 in BxPC3-luc and MCF7 cells. Data were presented as mean ± SD for three samples.
Radiotracer uptake experiments in tumor cells were performed using BxPC3-luc and MCF7 cell lines. To compare the uptake between radiobrominated compounds, [^77Br]2 and [^77Br]3, and the corresponding radioiodinated compounds, [^125I]4 and [^125I]5, the cellular uptake experiments were performed by a double tracer method as described previously with a slight modification[30],[31],[35]. Briefly, the cells were seeded in RPMI 1640 medium containing 10% FBS and antibiotics on six-well plates (2 × 10^5 cells/well) for 24 h in a 5% CO2 incubator at 37 °C. After removal of medium, cells were incubated in medium without FBS containing [^77Br]2 (3.7 kBq/well) and [^125I]4 (3.7 kBq/well) or [^77Br]3 (3.7 kBq/well) and [^125I]5 (3.7 kBq/well) and tween-80 (0.1%) for 0.5, 1, 2 and 4 h. Radioiodinated compounds were prepared as described previously][24]. Cells were washed with ice-cold 1 mL of PBS and dissolved using 0.5 mL of 1 M NaOH and wells were washed with 1 M NaOH aqueous solution (0.5 mL). The radioactivity of pooled basic fractions was counted by a gamma counter. A range between 16 and 71 keV was used for measuring ^125I and between 95 and 700 for ^77Br. When radioactivity of ^77Br was counted, the crossover of ^125I activity into the ^77Br channel was negligible. More than one month after the experiment, the radioactivity of ^125I was determined because at that time ^77Br has been decayed and its radioactivity was negligible. The protein in the cell was quantified by a BCA Protein Assay Kit. All data were expressed as %dose/µg protein.

RXF393 xenograft = test system: RXF393 xenograft; set-up: method as in PMID 23522977; conditions: RXF393 xenograft mice; cited from earlier work

T1 sequence (P09619 33-1106): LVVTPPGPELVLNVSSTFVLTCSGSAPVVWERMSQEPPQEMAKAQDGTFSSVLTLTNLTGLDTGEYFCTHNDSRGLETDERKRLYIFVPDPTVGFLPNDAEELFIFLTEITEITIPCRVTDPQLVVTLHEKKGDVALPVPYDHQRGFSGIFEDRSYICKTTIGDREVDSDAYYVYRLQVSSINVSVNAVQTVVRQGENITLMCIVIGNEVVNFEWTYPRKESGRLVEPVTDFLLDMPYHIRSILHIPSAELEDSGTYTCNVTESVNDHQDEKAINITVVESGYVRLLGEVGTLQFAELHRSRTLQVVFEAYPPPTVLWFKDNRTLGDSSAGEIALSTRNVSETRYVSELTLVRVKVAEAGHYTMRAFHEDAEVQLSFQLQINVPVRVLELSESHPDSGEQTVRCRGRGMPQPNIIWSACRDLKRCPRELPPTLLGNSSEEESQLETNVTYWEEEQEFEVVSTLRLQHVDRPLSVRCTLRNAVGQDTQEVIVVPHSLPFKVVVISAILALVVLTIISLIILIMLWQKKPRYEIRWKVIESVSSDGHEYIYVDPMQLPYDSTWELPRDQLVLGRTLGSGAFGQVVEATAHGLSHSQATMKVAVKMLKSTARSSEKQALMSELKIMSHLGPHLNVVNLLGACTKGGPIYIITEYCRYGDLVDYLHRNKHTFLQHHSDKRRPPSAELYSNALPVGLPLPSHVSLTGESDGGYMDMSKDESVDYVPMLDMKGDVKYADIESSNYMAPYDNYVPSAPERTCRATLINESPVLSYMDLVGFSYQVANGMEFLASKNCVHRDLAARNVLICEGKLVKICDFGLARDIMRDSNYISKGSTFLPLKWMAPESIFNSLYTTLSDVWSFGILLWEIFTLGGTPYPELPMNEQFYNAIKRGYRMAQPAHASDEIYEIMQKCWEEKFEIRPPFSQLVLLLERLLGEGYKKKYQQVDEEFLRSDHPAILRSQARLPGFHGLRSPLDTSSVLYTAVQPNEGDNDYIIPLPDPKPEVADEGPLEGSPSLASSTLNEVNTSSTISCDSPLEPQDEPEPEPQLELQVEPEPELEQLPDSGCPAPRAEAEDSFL

- IC50 (PDGFRβ (BxPC3-luc cells)): 56 ± 13 nM
Compound: COCCOc1ccc2c(c1)ncn2-c1ccc2c(Br)ccc(N3CCC(N)CC3)c2n1 [Compound 2, 1-{5-bromo-2-[5-(2-methoxyethoxy)-1H-benzo[d]imidazol-1-yl]quinolin-8-yl}piperidin-4-amine]
- Cell viability of TR-PCT1 cells [1]: more effective in decreasing the viability of TR-PCT1 cells than 1

- Radioactivity in Blood ([3]; 10 min): 1.15 (0.08)^* %injected dose/gram tissue
- Radioactivity in Bone ([3]; 10 min): 1.53 (0.14) %injected dose/gram tissue
- Radioactivity in Heart ([3]; 10 min): 4.27 (0.27) %injected dose/gram tissue
- Radioactivity in Kidney ([3]; 10 min): 14.44 (1.31) %injected dose/gram tissue
- Radioactivity in Large intestine ([3]; 10 min): 0.80 (0.07)^* %injected dose/gram tissue
- Radioactivity in Liver ([3]; 10 min): 11.59 (0.69) %injected dose/gram tissue
- Radioactivity in Lung ([3]; 10 min): 9.64 (0.66)^* %injected dose/gram tissue
- Radioactivity in Muscle ([3]; 10 min): 1.92 (0.18) %injected dose/gram tissue
- Radioactivity in Pancreas ([3]; 10 min): 3.52 (0.33)^* %injected dose/gram tissue
- Radioactivity in Small intestine ([3]; 10 min): 9.32 (2.30) %injected dose/gram tissue
- Radioactivity in Spleen ([3]; 10 min): 5.08 (0.56) %injected dose/gram tissue
- Radioactivity in Stomach ([3]; 10 min): 1.66 (0.11) %injected dose /organ
- Radioactivity in Blood ([3]; 1 h): 0.32 (0.09) %injected dose/gram tissue
- Radioactivity in Bone ([3]; 1 h): 1.22 (0.29) %injected dose/gram tissue
- Radioactivity in Brain ([3]; 1 h): 0.15 (0.04) %injected dose/gram tissue
- Radioactivity in Heart ([3]; 1 h): 1.23 (0.49) %injected dose/gram tissue
- Radioactivity in Kidney ([3]; 1 h): 8.18 (2.71) %injected dose/gram tissue
- Radioactivity in Large intestine ([3]; 1 h): 2.16 (0.54) %injected dose/gram tissue
- Radioactivity in Liver ([3]; 1 h): 3.72 (1.18) %injected dose/gram tissue
- Radioactivity in Lung ([3]; 1 h): 3.88 (0.72) %injected dose/gram tissue
- Radioactivity in Muscle ([3]; 1 h): 0.78 (0.11) %injected dose/gram tissue
- Radioactivity in Pancreas ([3]; 1 h): 2.49 (0.63) %injected dose/gram tissue
- Radioactivity in Small intestine ([3]; 1 h): 25.44 (6.86) %injected dose/gram tissue
- Radioactivity in Spleen ([3]; 1 h): 1.67 (0.41) %injected dose/gram tissue
- Radioactivity in Stomach ([3]; 1 h): 1.76 (0.58) %injected dose /organ
- Radioactivity in Blood ([3]; 4 h): 0.19 (0.05) %injected dose/gram tissue
- Radioactivity in Bone ([3]; 4 h): 0.32 (0.08) %injected dose/gram tissue
- Radioactivity in Heart ([3]; 4 h): 0.31 (0.05)^* %injected dose/gram tissue
- Radioactivity in Kidney ([3]; 4 h): 4.28 (0.68) %injected dose/gram tissue
- Radioactivity in Large intestine ([3]; 4 h): 51.43 (8.57) %injected dose/gram tissue
- Radioactivity in Liver ([3]; 4 h): 3.45 (1.02) %injected dose/gram tissue
- Radioactivity in Lung ([3]; 4 h): 2.18 (0.55) %injected dose/gram tissue
- Radioactivity in Pancreas ([3]; 4 h): 1.27 (0.11)^* %injected dose/gram tissue
- Radioactivity in Small intestine ([3]; 4 h): 4.98 (0.89) %injected dose/gram tissue
- Radioactivity in Spleen ([3]; 4 h): 0.43 (0.11) %injected dose/gram tissue
- Radioactivity in Stomach ([3]; 4 h): 0.85 (0.21) %injected dose /organ
- Radioactivity in Kidney ([3]; 24 h): 0.13 (0.03) %injected dose/gram tissue
- Radioactivity in Large intestine ([3]; 24 h): 0.14 (0.02) %injected dose/gram tissue
- Radioactivity in Liver ([3]; 24 h): 0.29 (0.08) %injected dose/gram tissue
- Radioactivity in Lung ([3]; 24 h): 0.15 (0.08)^* %injected dose/gram tissue
- Radioactivity in Pancreas ([3]; 24 h): 0.07 (0.02) %injected dose/gram tissue
- Radioactivity in Spleen ([3]; 24 h): 0.11 (0.09)^* %injected dose/gram tissue
- Radioactivity in Stomach ([3]; 24 h): 0.05 (0.00)^** %injected dose /organ
- Tumor-to-blood ratio of radioactivity (BxPC3-luc tumor; 1 h postinjection): 1.9
- Radioactivity in Stomach (BxPC3-luc tumor; i.v. co-injection, 1 h): 0.97 (0.19) %injected dose /organ
Compound: COCCOc1ccc2c(c1)ncn2-c1ccc2c([125I])ccc(N3CCC(N)CC3)c2n1 [[^125I]4, [^125I]1-{5-iodo-2-[5-(2-methoxyethoxy)-1H-benzo[d]imidazol-1-yl]quinolin-8-yl}piperidin-4-amine, reference compound]
- n-octanol/phosphate buffer partition coefficient (log P) [2]: 2.71 ± 0.03
- Radioactivity in Brain ([3]; 10 min): 0.07 (0.00)^** %injected dose/gram tissue
- Radioactivity in Brain ([3]; 4 h): 0.03 (0.00)^** %injected dose/gram tissue
- Radioactivity in Muscle ([3]; 4 h): 0.23 (0.06)^** %injected dose/gram tissue
- Radioactivity in Blood ([3]; 24 h): 0.03 (0.00)^** %injected dose/gram tissue
- Radioactivity in Bone ([3]; 24 h): 0.15 (0.05)^** %injected dose/gram tissue
- Radioactivity in Brain ([3]; 24 h): 0.02 (0.00)^** %injected dose/gram tissue
- Radioactivity in Heart ([3]; 24 h): 0.10 (0.09)^** %injected dose/gram tissue
- Radioactivity in Muscle ([3]; 24 h): 0.04 (0.01)^** %injected dose/gram tissue
- Radioactivity in Small intestine ([3]; 24 h): 0.04 (0.00)^** %injected dose/gram tissue
- Radioactivity in Blood (BxPC3-luc tumor; i.v. co-injection, 1 h): 0.63 (0.05) %injected dose/gram of tissue
- Radioactivity in Bone (BxPC3-luc tumor; i.v. co-injection, 1 h): 0.83 (0.10)^* %injected dose/gram of tissue
- Radioactivity in Brain (BxPC3-luc tumor; i.v. co-injection, 1 h): 0.07 (0.00) %injected dose/gram of tissue
- Radioactivity in BxPC3-luc tumor (BxPC3-luc tumor; i.v. co-injection, 1 h): 1.19 (0.06)^* %injected dose/gram of tissue
- Radioactivity in Heart (BxPC3-luc tumor; i.v. co-injection, 1 h): 1.51 (0.40) %injected dose/gram of tissue
- Radioactivity in Kidney (BxPC3-luc tumor; i.v. co-injection, 1 h): 15.56 (3.61) %injected dose/gram of tissue
- Radioactivity in Large intestine (BxPC3-luc tumor; i.v. co-injection, 1 h): 2.46 (0.35) %injected dose/gram of tissue
- Radioactivity in Liver (BxPC3-luc tumor; i.v. co-injection, 1 h): 11.02 (0.73) %injected dose/gram of tissue
- Radioactivity in Lung (BxPC3-luc tumor; i.v. co-injection, 1 h): 9.14 (2.14) %injected dose/gram of tissue
- Radioactivity in Muscle (BxPC3-luc tumor; i.v. co-injection, 1 h): 0.79 (0.10) %injected dose/gram of tissue
- Radioactivity in Pancreas (BxPC3-luc tumor; i.v. co-injection, 1 h): 5.48 (0.93) %injected dose/gram of tissue
- Radioactivity in Small intestine (BxPC3-luc tumor; i.v. co-injection, 1 h): 47.01 (5.56) %injected dose/gram of tissue
- Radioactivity in Spleen (BxPC3-luc tumor; i.v. co-injection, 1 h): 2.76 (0.73) %injected dose/gram of tissue
- Cellular uptake in BxPC3-luc cells [4]: higher than that in MCF7 cells

Compound: CNC(=O)c1cc(Oc2ccc(NC(=O)Nc3ccc(Cl)c(C(F)(F)F)c3)cc2)ccn1 [^11C-labeled sorafenib, sorafenib]
- Tumor uptake (RXF393 xenograft): about 2.52 ± 0.33 %ID/g
